Experimental data as given in patent publication US9121859B2, “Compounds and methods for determination of FKBP-binding immunosuppressant drugs” (Siemens Healthcare Diagnostics Inc., priority 2012, dated 2015).

What was measured:
[1] = test system: endogenous specific binding proteins (FKBP) in whole blood; assay: ACMIA assay for sirolimus: release of sirolimus from endogenous binding substances in spiked whole blood by releasing agent; conditions: for Drug concentration measured / Percent (%) displaced vs. SIRO: releasing agent 10 μg/mL
Method: (§1) Testing was carried out using the DIMENSION® RxL analyzer, available from Siemens Healthcare Diagnostics Inc., Newark Del. The instrument was employed using ACMIA immunoassay technology. The ACMIA assay method is described in U.S. Pat. Nos. 7,842,475, 7,186,518, 5,147,529, 5,128,103, 5,158,871, 4,661,408, 5,151,348, 5,302,532, 5,422,284, 5,447,870, and 5,434,051, the disclosures of which are incorporated herein in their entirety. In the embodiment of the ACMIA method used herein and discussed in more detail below, competition between tacrolimus analog on chrome particles and tacrolimus in patient samples for antibody for tacrolimus conjugated to an enzyme (the “conjugate”) is utilized to determine the amount of tacrolimus in patient samples. Conjugate that binds to the tacrolimus analog on chrome particles is removed by magnetic separation. The enzymatic activity from the conjugate remaining in the supernatant is measured and is directly proportional to the amount of tacrolimus in the patient sample. […] The enzymatic activity observed when no chrome particle is present is indicative of the total amount of enzymatic activity in the conjugate.
(§2) Preparation of pretreatment reagent solution. This pretreatment solution was prepared to contain an amount of releasing agent, 6.8 mg/mL PIPES 1.5 sodium salt (buffer), 0.3 mg/mL EDTA disodium (clot prevention agent), 1.0 mg/mL saponin (hemolytic agent), 0.2% PROCLIN® 300 (preservative), 0.024 mg/mL neomycin sulfate (preservative) and 0.99 mg/mL NaN3, pH 6.5. The amount of releasing agent in each of the pretreatment reagent solutions was 10 μg/mL. The releasing agent concentration in the final reaction mixture was equivalent to 46.7 μg/mL of the analog added from the sample.
Preparation of anti-sirolimus antibody-β-galactosidase conjugate. […] The antibody conjugate solution contained approximately 7.5 μg/mL anti-sirolimus antibody-β-galactosidase conjugate, 30 mg/mL protease free bovine serum albumin, 0.126 mg/mL MgCl2, 0.03 mL/mL of ethylene glycol, 35.14 mg/mL PIPES 1.5 sodium salt, 50 mg/mL NaCl and beta-gal mutein (inactivated β-galactosidase), pH 6.5.
Magnetic chrome particle preparation. Sirolimus chrome particles (immunoassay solid phase) were prepared by conjugating sirolimus-biotin conjugate to streptavidin-coated chrome particle (prepared in a manner similar to that described in U.S. Pat. No. 7,842,475). The chrome particle reagent contained approximately 2.5 mg/mL sirolimus chrome particle slurry, 60.8 mg/mL trehalose dihydrate and 7.2 mg/mL CARBOWAX®.
(§3) Preparation of samples. Aliquots of a whole blood pool are spiked with an amount of sirolimus so that the resulting concentration of sirolimus in the whole blood samples in the calibrators is as set forth in Table 1 (0.0, 5.1, 10.1, 20.6 and 31.6 ng/mL). Aliquots of a whole blood pool are spiked with an amount of tacrolimus so that the resulting concentration of […] (0.0, 2.6, 5.3, 11.6 and 30.1 ng/mL).
(§4) Pretreatment of samples. A set of samples was treated as follows: To each sample was added an amount of the pretreatment reagent solution from above for displacing sirolimus in the sample from endogenous specific binding proteins. The samples were incubated at 37° C. for a period of 140 minutes. Subsequently, each sample was subjected to the aforementioned assay, which is further described below; and signal (mAU) was measured and related to a concentration of analyte that represents the amount of free analyte (analyte that is not bound by endogeneous binding substances plus analyte that was displaced from endogeneous binding substances) in the samples.
Assay. The ACMIA assay for sirolimus was carried out as follows: 15 μL of a whole blood sample from above was mixed with the pretreatment reagent solution from above (Displacer) (Table 1) in a vessel on the DIMENSION® RxL analyzer.

[2] = test system: monoclonal anti-sirolimus antibody (clone 155-M1); assay: Calculated cross-reactivity of releasing agent with antibody of the sirolimus ACMIA assay; assay type: binding; conditions: for Calculated antibody cross-reactivity (percent (%) times 100): sirolimus assay, measured at calibrator of 0 ng/mL, measured value/46.7 μg/mL analog
Method: (§5) Preparation of anti-sirolimus antibody-β-galactosidase conjugate. Monoclonal anti-sirolimus antibody (clone 155-M1 from Wyeth Pharmaceutical) was conjugated to β-galactosidase using a standard heterobifunctional SMCC (succinimidyl trans-4-(N-maleimidylmethyl)cyclohexane-1-carboxylate) linker according to known techniques. The antibody conjugate solution contained approximately 7.5 μg/mL anti-sirolimus antibody-β-galactosidase conjugate, 30 mg/mL protease free bovine serum albumin, 0.126 mg/mL MgCl2, 0.03 mL/mL of ethylene glycol, 35.14 mg/mL PIPES 1.5 sodium salt, 50 mg/mL NaCl and beta-gal mutein (inactivated β-galactosidase), pH 6.5.
(§6) Anti-sirolimus antibody-β-galactosidase conjugate (50 μL) was added next to each of the reaction vessels and the mixture was held for a period of time (10 to 15 minutes) and at a temperature of 43° C. to allow sirolimus, if present, to react with the antibody reagent. Chrome particles with immobilized sirolimus-biotin conjugate to streptavidin-coated chrome particle were added (50 μL) to each of the reaction vessels and were allowed to bind un-bound conjugate. […] The sirolimus-bound conjugate was detected by transferring the supernatant from each of the reaction vessels to a photometric cuvette and measuring the enzymatic rate of the conjugate in the presence of chlorophenol red-β-D-galactopyranoside (CPRG). The rate for each reaction vessel was measured bichromatically at 577 and 700 nm. The results are summarized in Table 1 under the categories: instrument signal observed for calibrators, drug concentration measured in ng/mL, percent (%) displaced vs. SIRO and calculated antibody cross-reactivity (percent (%) times 100). Cross-reactivity was based on the following: • 1) 70 μL of pretreatment reagent solution was added to the reaction medium versus 15 μL of sample, total reaction mixture volume=305 μL. • 2) 10 μg/mL of SIRO analog was in the pretreatment reagent solution. • 3) 10 μg/mL of SIRO analog from pretreatment reagent is equivalent to 46.7 μg/mL of SIRO analog added from sample (Calculation: 70 μL×10 μg/mL/15 μL=46.7 μg/mL) • 4) Measured sirolimus value at 0 ng/mL calibrator. • 5) Measure value/46.7 is % cross-reactivity.

[3] = test system: endogenous specific binding proteins (FKBP) in whole blood; assay: ACMIA assay for tacrolimus: release of tacrolimus from endogenous binding substances in spiked whole blood by releasing agent; conditions: for Drug concentration measured / Percent (%) displaced vs. SIRO: releasing agent 10 μg/mL
Method: as §1, §2
as §5, with “anti-tacrolimus” for “anti-sirolimus”, “1H6, see for example U.S. Pat. No. 7,078,495) is” for “155-M1 from Wyeth Pharmaceutical) was”, “contains” for “contained”
The chrome particle reagent contained approximately 2.5 mg/mL tacrolimus chrome particle slurry, 60.8 mg/mL trehalose dihydrate and 7.2 mg/mL CARBOWAX®.
as §3, §4
The above format for releasing an analyte (using the concentration of releasing agent (Displacer) shown) and conducting an assay for the analyte was repeated for samples containing tacrolimus.

[4] = test system: monoclonal anti-tacrolimus antibody (clone 1H6); assay: Calculated cross-reactivity of releasing agent with antibody of the tacrolimus ACMIA assay; assay type: binding; conditions: measured at calibrator of 0 ng/mL
Method: as §5, with “anti-tacrolimus” for “anti-sirolimus”, “1H6, see for example U.S. Pat. No. 7,078,495) is” for “155-M1 from Wyeth Pharmaceutical) was”, “contains” for “contained”
as §6, with “reagent.” for “reagent. Chrome particles with immobilized sirolimus-biotin conjugate to streptavidin-coated chrome particle were added (50 μL) to each of the reaction vessels and were allowed to bind un-bound conjugate.”, “cross-reactivity. […]” for “cross-reactivity.”

[5] = sirolimus assay, result in words
[6] = sirolimus calibrator 10.1 ng/mL
[7] = sirolimus calibrator 20.6 ng/mL
[8] = sirolimus calibrator 31.6 ng/mL
[9] = tacrolimus assay, result in words
[10] = tacrolimus calibrator 0.0 ng/mL
[11] = tacrolimus calibrator 2.6 ng/mL
[12] = tacrolimus calibrator 5.3 ng/mL
[13] = tacrolimus calibrator 11.6 ng/mL
[14] = tacrolimus calibrator 30.1 ng/mL

Row | Molecule | Displacement efficiency compared with mixture of V and VI [1, 5] | Drug concentration measured ([1]; sirolimus calibrator 0.0 ng/mL) [ng/mL] | Drug concentration measured ([1]; sirolimus calibrator 5.1 ng/mL) [ng/mL] | Percent (%) displaced vs. SIRO ([1]; sirolimus calibrator 5.1 ng/mL) [%] | Drug concentration measured [1, 6] [ng/mL] | Percent (%) displaced vs. SIRO [1, 6] [%] | Drug concentration measured [1, 7] [ng/mL] | Percent (%) displaced vs. SIRO [1, 7] [%] | Drug concentration measured [1, 8] [ng/mL] | Percent (%) displaced vs. SIRO [1, 8] [%] | Calculated antibody cross-reactivity (percent (%) times 100) [2] [% × 100] | Drug concentration measured [3, 10] [ng/mL] | Drug concentration measured [3, 11] [ng/mL] | Percent (%) displaced vs. SIRO [3, 11] [%] | Drug concentration measured [3, 12] [ng/mL] | Percent (%) displaced vs. SIRO [3, 12] [%] | Drug concentration measured [3, 13] [ng/mL] | Percent (%) displaced vs. SIRO [3, 13] [%] | Drug concentration measured [3, 14] [ng/mL] | Percent (%) displaced vs. SIRO [3, 14] [%] | further results
1 | C=CC[C@@H]1/C=C(\C)C[C@H](C)C[C@H](OC)[C@H]2O[C@@](O)(C(=O)C(=O)N3CCCC[C@H]3C(=O)O[C@H](/C(C)=C/[C@@H]3CC[C@@H](O)[C@H](OC)C3)[C@H](C)[C@@H](O)CC1=O)[C@H](C)C[C@@H]2OC [Tacro, tacrolimus] | lower displacement efficiency | -0.1 | 2.6 | 52 | 4.1 | 40 | 7.7 | 38 | 13.0 | 41 | 0.00 |  |  |  |  |  |  |  |  |  | 
2 | CO[C@H]1C[C@@H]2CC[C@@H](C)[C@@](O)(O2)C(=O)C(=O)N2CCCC[C@H]2C(=O)O[C@H]([C@H](C)C[C@@H]2CC[C@@H](O)[C@H](OC)C2)CC(=O)[C@H](C)/C=C(\C)[C@@H](O)[C@@H](OC)C(=O)[C@H](C)C[C@H](C)CCCCCC1C (some centres unmarked) [XI, hydrogenated sirolimus] | lower displacement efficiency | 72.7 | 82.5 | 1622 | 96.4 | 951 | 94.0 | 458 | 85.2 | 269 | 15.56 | 0.3 | 1.8 | 68 | 2.9 | 54 | 5.6 | 48 | 16.0 | 53 | Cross-reactivity with the sirolimus assay antibody ([2]; result in words): higher cross-reactivity; Displacement efficiency compared with mixture of V and VI [3, 9]: lower displacement efficiency; Calculated antibody cross-reactivity (percent (%) times 100) [4]: 0.06 % × 100
3 | Diels-Alder adducts of 4-phenyl-1,2,4-triazoline-3,5-dione (PTAD) and sirolimus [Mixture V + VI] |  | 1.4 | 5.8 | 114 | 9.7 | 96 | 16.8 | 82 | 27.5 | 87 | 0.29 | 0.6 | 2.9 | 111 | 4.7 | 89 | 9.5 | 82 | 23.5 | 78 | Suitability as releasing agent for sirolimus analyte [1, 5]: suitable as a releasing agents; Suitability as releasing agent for tacrolimus analyte [3, 9]: suitable as a releasing agents; Calculated antibody cross-reactivity (percent (%) times 100) [4]: 0.13 % × 100
